Test results from patent US8269005B2 (Sunovion Pharmaceuticals Inc., priority 2007, dated 2012).

Key:
[1] = Aqueous solubility (24 hour equilibrated suspension in water, HPLC); format: physicochemical; details: for pH measured at saturation: saturated suspension in water
Method: The aliquot was diluted and analyzed by HPLC (Waters). The data was compared to a standard curve generated from a set of solutions of known concentrations. The standard curve and the samples were analyzed using a HPLC using the following conditions: […]

[2] = Tablet dissolution over time in media of various pH; format: physicochemical; details: for Dependence of dissolution on pH of the medium: oral dosage form, pH 1 to 6.8 and deionized water; for Dissolution / Fraction of tablet dissolved: tablet
Method: The dissolution media used were (a) pH 1 (0.1N HCl) 50 ml of cone HCl mixed in 6 L of water; (b) pH 4.5 acetate buffer (20 mM) […] of sodium acetate trihydrate dissolved in 6 L of water, pH adjusted to 4.5 with acetic acid; (c) pH 5.5 phosphate buffer (20 mM) 16.3 g of potassium dihydrogen phosphate in 6 L of water. pH adjusted to 5.5 with NaOH; (d) pH 6.8 phosphate buffer (20 mM) 16.3 g of potassium dihydrogen phosphate in 6 L of water. pH adjusted 6.8 with NaOH. A standard dissolution protocol was used. The standard solution (0.006 mg/mL of eszopiclone free base) was prepared by weighing a known amount (˜20 mg) of the free base into a 100 mL volumetric flask. 10 mL of acetonitrile was added into the flask and sonicated until the solids dissolved completely. The solution was cooled to room temperature and made up to the 100 mL mark using media and mixed well. Dilute 3 mL to 100 mL using media. The tables were prepared by transferring 500 mL dissolution media into the 6 vessels. Blank readings were taken for all the probes using media. Standards were read for individual vessels. Probes were washed with media and then inserted back into each vessel. One tablet was transferred into each vessel. The dissolution program was started immediately and readings were taken at 305 nm for 60 min (every 1 min for 20 min and then every 10 min).
FIG. 1 depicts dissolution profiles of the eszopiclone free base at pH 1 (0.1N HCl), pH 4.5 in buffer, pH 5.5 in buffer, pH 6.8 in buffer and in deionized water. […] It can be seen that the dissolution is greater than 50% within five minutes and greater than 80% at one hour at all pH.

| Compound | pH measured at saturation [1] | Dependence of dissolution on pH of the medium ([2]; listed as L-malate salt) | Dissolution ([2]; at one hour, all pH (pH 1, 4.5, 5.5, 6.8, deionized water)) | Dissolution ([2]; within five minutes, all pH (pH 1, 4.5, 5.5, 6.8, deionized water)) | Solubility ([1]; water, ambient, equilibrated 24 hour) | Dependence of dissolution on pH of the medium ([2]; listed as eszopiclone free base) | Fraction of tablet dissolved ([2]; deionized water, at one hour) | Dissolution ([2]; pH 1 (0.1N HCl)) | Fraction of tablet dissolved ([2]; pH 6.8 buffer, at one hour) |
| --- | --- | --- | --- | --- | --- | --- | --- | --- | --- |
| CN1CCN(C(=O)O[C@H]2c3nccnc3C(=O)N2c2ccc(Cl)cn2)CC1 [L-malate, (S)-Zopiclone L-Malate] | 3.9 | dissolve quickly and at substantially the same rate, regardless of the pH of the dissolving medium | greater than 80% | greater than 50% | – | – | – | – | – |
| CN1CCN(C(=O)O[C@H]2c3nccnc3C(=O)N2c2ccc(Cl)cn2)CC1 [Free base, [(9S)-8-(5-chloropyridin-2-yl)-7-oxo-2,5,8-triazabicyclo[4.3.0]nona-1,3,5-trien-9-yl]-4-methyl piperazine-1-carboxylate] | 7.6 | – | – | – | 0.2^1 mgA/mL | decreases markedly as the pH rises | less than one half | rapid and complete | less than one half |
